Marks after values point to notes of the source that are not given here.
Assays:
Gigaspora rosea = experiment: Oxygraph measurement of cell respiration of Gigaspora rosea; assay type: cell-based; settings: for % stimulation (respiration, average of 3 tests): GR7 0.1 μM final
Protocol: The control is carried out using 10 μl of methanol/water (v/v) per ml of medium.
Two independent series of experiments were carried out, after 4 hours' stimulation (series 1) and after 5½ hours' stimulation (series 2).
For each, the values recorded correspond to the averages of 3 tests.

Gigaspora rosea spores [1] = experiment: Stimulation of hypha branching and elongation of Gigaspora rosea by GR7; assay type: cell-based
Protocol: Gigaspora rosea spores are germinated in gelosed medium M for 5 days at 30° C. and in an atmosphere enriched with 2% CO2. 10 μl of test agent solution are then added to the medium by introduction into a well hollowed out in the gelose, starting from a solution having a concentration of test agent varying from 10^−5 to 10^−11 M. The controls receive only the solvent for the test agents (10 μl of 50% methanol) under the same conditions.
The apexes formed are counted after 48 hours' treatment. In addition, the elongation activity is evaluated by measuring the number of cm formed before and after treatment. Two series of experiments, with different concentrations of GR7, were carried out.

[2] = tested on: Medicago truncatula / Gigaspora rosea; experiment: In vitro mycorrhization of Medicago truncatula by Gigaspora rosea (points of contact between fungus and roots); assay type: in vivo; settings: GR7 0.1 μM in medium M, 3 weeks, 8 plants; control (methanol) 2.2; P = 0.02 Mann-Whitney
Protocol: Measurements of the number of points of contact established between the fungus and the roots during in vitro mycorrhization experiments were carried out. Medicago truncatula plants were cultivated in vitro in the presence of Gigaspora rosea spores, on medium M enriched with GR7.
For the tests, medium M prepared as above is enriched with GR7 to give a final concentration of 0.1 μM. The controls are carried out with medium M to which methanol is added to give a final concentration of 0.1%. The medium is poured into square Petri dishes (100×100). Three control dishes and three test dishes are prepared. The Gigaspora rosea spores are pre-germinated in those dishes (25 per dish) in an oven at 30° C., with 2% CO2, for 6 days. The Medicago truncatula seeds are sterilized with Javel water at 8 degrees chlorimetric for 5 minutes. After rinsing with sterile distilled water, they are germinated on a medium composed of bacteriological agar with 1 μM gibberellin. After 24 hours at 4° C., they are transferred into a chamber at 25° C. for 24 hours. Eighteen plantlets so prepared are then distributed randomly in the six experimental dishes containing the spores in the process of germinating. […]
The number of points of contact established between the fungus and the roots is counted plant by plant after observation under a microscope.

[3] = tested on: Glomus intraradices spores; experiment: Polarographic measurement of oxygen consumption (cell respiration) of germinating Glomus intraradices spores; assay type: cell-based; settings: GR24 0.3 μM final
Protocol: Polarographic measurements of oxygen consumption were carried out on Glomus intraradices spores in germination, in the presence or absence of GR24.
400 spores in 1 ml of medium M are used per test.
In order to stimulate the spores, there are added to each test 10 μl of a 30 μM solution of GR24 in acetone (1%), namely a final concentration of GR24 of 0.3 μM. The controls receive 10 μl of acetone (1%).
The oxygen consumption is measured using an oxygen electrode, known as a Clark electrode (Hansatech Ltd, Hardwick Industrial, Norfolk, United Kingdom), inserted into a Plexiglass chamber. The oxygen electrode is connected to a recorder calibrated between 0 and 100% with atmospheric oxygen.
The spores are introduced into the chamber, and the temperature is maintained at 30° C. by means of a circulating water bath. The rates of oxygen consumption are read directly from the recorder. The measurements of oxygen consumption are carried out over 15 minutes, after 4 hours' stimulation (series 1) and after 5½ hours' stimulation (series 2).
Two independent series of experiments were carried out. For each, the recorded values correspond to the average of 3 tests.
The increase in oxygen consumption is expressed as a percentage relative to that of the control, treated with acetone.

Gigaspora rosea spores [4] = experiment: Stimulation of the branching of the hyphae of Gigaspora rosea by GR24 (newly formed apexes); assay type: cell-based
Excerpt: The stimulated branching of the hyphae (appearance of new apexes) is the test currently employed to evaluate the stimulating activity of various effectors on endomycorrhizal fungi of the genus Gigaspora. This phenomenon occurs naturally close to the roots of host plants, as well as under the action of root exudates, and is considered to be a preparatory phase to the establishment of symbiosis (Buée et al., Molecular Plant-Microbe Interaction, 2000, 13:693-698). This increase in branching is the result of stimulation of the fungus metabolism and leads to an increase in the points of contact between the fungus and the roots of the plant. Any increase in the branching of the hyphae of the fungus increases mycorrhization.
Measurements of branching (expressed as the number of apexes appearing after stimulation) of the germinative tubes of Gigaspora rosea were carried out in the presence of various concentrations of GR24.
To that end, Gigaspora rosea spores are germinated in gelosed medium M (medium M containing 0.4% (w/v) Phytagel®—SIGMA, France) for 5 days at 30° C. and in an atmosphere enriched with 2% CO2. 10 μl of test agents (in concentrations varying from 10^−8 to 10^−15 M) in solution in 50% methanol are then added to the medium by introduction into a well hollowed out in the gelose.
The controls receive the solvent for the test molecules (10 μl of 50% methanol) under the same conditions.
48 hours after treatment, the apexes formed above the stimulation zone are counted. Two series of experiments with GR24, at different concentrations, were carried out.

[5] = Series 1: after 4 hours' stimulation
[6] = Series 2: after 5½ hours' stimulation
[7] = GR7 10^−5 M, Series 1, relative to control
[8] = GR7 10^−5 M, Series 2, relative to control
[9] = GR7 10^−7 M, Series 1, relative to control
[10] = GR7 10^−7 M, Series 2, relative to control
[11] = GR7 10^−9 M, Series 1, relative to control
[12] = GR7 10^−9 M, Series 2, relative to control
[13] = GR7 10^−11 M, Series 1, relative to control
[14] = GR7 10^−11 M, Series 2, relative to control

CC1=CC(O/C=C2/C(=O)OC3CC=CC23)OC1=O (stereo not drawn) [GR7]
% stimulation (respiration, average of 3 tests) (Gigaspora rosea; [5]): 24.0%
% stimulation (respiration, average of 3 tests) (Gigaspora rosea; [6]): 33.6%
Activity on the respiration of Gigaspora rosea (Gigaspora rosea; final concentration 0.1 μM, after 5 hours' stimulation): active
cm newly formed/spore (Gigaspora rosea spores [1]; GR7 10^−5 M, Series 1): 4.88 cm
Number of newly formed apexes (Gigaspora rosea spores [1]; GR7 10^−5 M, Series 1, after 48 hours' treatment): 9.3
Branching stimulation ratio (Gigaspora rosea spores [1]; [7]): 5.31
Growth stimulation ratio (Gigaspora rosea spores [1]; [7]): 4.44
cm newly formed/spore (Gigaspora rosea spores [1]; GR7 10^−5 M, Series 2): 6.5 cm
Number of newly formed apexes (Gigaspora rosea spores [1]; GR7 10^−5 M, Series 2, after 48 hours' treatment): 14.25
Branching stimulation ratio (Gigaspora rosea spores [1]; [8]): 6.59
Growth stimulation ratio (Gigaspora rosea spores [1]; [8]): 2.60
cm newly formed/spore (Gigaspora rosea spores [1]; GR7 10^−7 M, Series 1): 4.65 cm
Number of newly formed apexes (Gigaspora rosea spores [1]; GR7 10^−7 M, Series 1, after 48 hours' treatment): 8.75
Branching stimulation ratio (Gigaspora rosea spores [1]; [9]): 5
Growth stimulation ratio (Gigaspora rosea spores [1]; [9]): 4.23
cm newly formed/spore (Gigaspora rosea spores [1]; GR7 10^−7 M, Series 2): 5.09 cm
Number of newly formed apexes (Gigaspora rosea spores [1]; GR7 10^−7 M, Series 2, after 48 hours' treatment): 10.42
Branching stimulation ratio (Gigaspora rosea spores [1]; [10]): 4.82
Growth stimulation ratio (Gigaspora rosea spores [1]; [10]): 2.04
cm newly formed/spore (Gigaspora rosea spores [1]; GR7 10^−9 M, Series 1): 2.62 cm
Number of newly formed apexes (Gigaspora rosea spores [1]; GR7 10^−9 M, Series 1, after 48 hours' treatment): 8
Branching stimulation ratio (Gigaspora rosea spores [1]; [11]): 4.57
Growth stimulation ratio (Gigaspora rosea spores [1]; [11]): 2.38
cm newly formed/spore (Gigaspora rosea spores [1]; GR7 10^−9 M, Series 2): 4.99 cm
Number of newly formed apexes (Gigaspora rosea spores [1]; GR7 10^−9 M, Series 2, after 48 hours' treatment): 6.16
Branching stimulation ratio (Gigaspora rosea spores [1]; [12]): 2.85
Growth stimulation ratio (Gigaspora rosea spores [1]; [12]): 2.00
cm newly formed/spore (Gigaspora rosea spores [1]; GR7 10^−11 M, Series 1): 2.65 cm
Number of newly formed apexes (Gigaspora rosea spores [1]; GR7 10^−11 M, Series 1, after 48 hours' treatment): 5.16
Branching stimulation ratio (Gigaspora rosea spores [1]; [13]): 2.94
Growth stimulation ratio (Gigaspora rosea spores [1]; [13]): 2.41
cm newly formed/spore (Gigaspora rosea spores [1]; GR7 10^−11 M, Series 2): 2.23 cm
Number of newly formed apexes (Gigaspora rosea spores [1]; GR7 10^−11 M, Series 2, after 48 hours' treatment): 2.66
Branching stimulation ratio (Gigaspora rosea spores [1]; [14]): 1.23
Growth stimulation ratio (Gigaspora rosea spores [1]; [14]): 0.89
Activity on branching (number of newly formed apexes) (Gigaspora rosea spores [1]; doses of the nanomolar order): significantly active
Activity on cell elongation (Gigaspora rosea spores [1]; doses of the nanomolar order): significantly active
Average points of contact (fungus-roots, per plant) [2]: 7.75*

CC1=CC(O/C=C2/C(=O)OC3c4ccccc4CC23)OC1=O (stereo not drawn) [GR24]
% stimulation (increase in oxygen consumption relative to control, average of 3 tests) [3, 5]: 29.0%
% stimulation (increase in oxygen consumption relative to control, average of 3 tests) [3, 6]: 76.6%
Apex/spore (Gigaspora rosea spores [4]; GR24 10^−8 M, Series 1, 48 hours after treatment): 16.3
Number of newly formed apexes (Gigaspora rosea spores [4]; GR24 10^−8 M, Series 1, 48 hours after treatment, 4 spores): 65
Stimulation factor (Gigaspora rosea spores [4]; GR24 10^−8 M, Series 1, relative to control): 5.4
Apex/spore (Gigaspora rosea spores [4]; GR24 10^−8 M, Series 2, 48 hours after treatment): 14.0
Number of newly formed apexes (Gigaspora rosea spores [4]; GR24 10^−8 M, Series 2, 48 hours after treatment, 1 spore): 14
Stimulation factor (Gigaspora rosea spores [4]; GR24 10^−8 M, Series 2, relative to control): 4.0
Apex/spore (Gigaspora rosea spores [4]; GR24 10^−10 M, Series 1, 48 hours after treatment): 15.0
Number of newly formed apexes (Gigaspora rosea spores [4]; GR24 10^−10 M, Series 1, 48 hours after treatment, 3 spores): 45
Stimulation factor (Gigaspora rosea spores [4]; GR24 10^−10 M, Series 1, relative to control): 5.0
Apex/spore (Gigaspora rosea spores [4]; GR24 10^−10 M, Series 2, 48 hours after treatment): 13.3
Number of newly formed apexes (Gigaspora rosea spores [4]; GR24 10^−10 M, Series 2, 48 hours after treatment, 3 spores): 40
Stimulation factor (Gigaspora rosea spores [4]; GR24 10^−10 M, Series 2, relative to control): 3.8
Apex/spore (Gigaspora rosea spores [4]; GR24 10^−12 M, Series 1, 48 hours after treatment): 9.0
Number of newly formed apexes (Gigaspora rosea spores [4]; GR24 10^−12 M, Series 1, 48 hours after treatment, 4 spores): 36
Stimulation factor (Gigaspora rosea spores [4]; GR24 10^−12 M, Series 1, relative to control): 3.0
Apex/spore (Gigaspora rosea spores [4]; GR24 10^−12 M, Series 2, 48 hours after treatment): 8.5
Number of newly formed apexes (Gigaspora rosea spores [4]; GR24 10^−12 M, Series 2, 48 hours after treatment, 4 spores): 34
Stimulation factor (Gigaspora rosea spores [4]; GR24 10^−12 M, Series 2, relative to control): 2.4
Apex/spore (Gigaspora rosea spores [4]; GR24 10^−15 M, Series 1, 48 hours after treatment): 3.8
Number of newly formed apexes (Gigaspora rosea spores [4]; GR24 10^−15 M, Series 1, 48 hours after treatment, 4 spores): 15
Stimulation factor (Gigaspora rosea spores [4]; GR24 10^−15 M, Series 1, relative to control): 1.3
Apex/spore (Gigaspora rosea spores [4]; GR24 10^−15 M, Series 2, 48 hours after treatment): 8.5
Number of newly formed apexes (Gigaspora rosea spores [4]; GR24 10^−15 M, Series 2, 48 hours after treatment, 2 spores): 17
Stimulation factor (Gigaspora rosea spores [4]; GR24 10^−15 M, Series 2, relative to control): 2.4
Stimulating effect on branching (Gigaspora rosea spores [4]; doses lower than picomolar): a clear stimulating effect is still observed
Stimulation of branching (factor) (Gigaspora rosea spores [4]; submicromolar doses of GR24): 5

From patent publication US8101171B2, “Modulators of the development of mychorrizal fungi with arbuscules, and uses thereof” (priority 2004, dated 2012)
